# Reference: PMC6119630 (Bioorganic & medicinal chemistry letters, 2018)
# Legend:
# PPARα [1] = test: Western blot analysis of PPARα expression in 661W cells; assay type: cell-based, mouse; conditions: 24 h treatment
# [2] = test system: PPARα target genes (Acadm, Cpt1a, Fabp3, Slc25a20); test: RT-PCR of PPARα target genes in 661W cells; assay type: cell-based, mouse; conditions: 24 h treatment, n=6
# [3] = test system: human retinal capillary endothelial cells (HRCEC); test: in vitro wound healing assay; assay type: cell-based; conditions: 10 h and 24 h incubation
# hPPARα [4] = target: T1, hPPARα (Homo sapiens, UniProt Q07869); test: cell-based
# T1 sequence (Q07869 1-468): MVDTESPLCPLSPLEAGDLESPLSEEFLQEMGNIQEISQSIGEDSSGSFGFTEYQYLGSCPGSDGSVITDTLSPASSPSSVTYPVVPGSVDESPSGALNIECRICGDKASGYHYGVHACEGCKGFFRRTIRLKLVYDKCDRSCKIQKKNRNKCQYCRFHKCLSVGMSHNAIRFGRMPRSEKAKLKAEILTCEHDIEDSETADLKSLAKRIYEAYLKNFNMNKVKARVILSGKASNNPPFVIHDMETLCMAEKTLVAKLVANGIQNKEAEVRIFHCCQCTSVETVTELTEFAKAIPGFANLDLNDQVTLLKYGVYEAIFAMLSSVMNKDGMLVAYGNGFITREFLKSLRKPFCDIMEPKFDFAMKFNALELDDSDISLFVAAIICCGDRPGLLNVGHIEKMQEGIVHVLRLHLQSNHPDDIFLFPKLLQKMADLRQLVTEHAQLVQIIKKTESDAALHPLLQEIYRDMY
# hPPARα [5] = target: T1, hPPARα; test: PPARα luciferase cell reporter assay; conditions: for PPAR isoform selectivity profile: hPPARδ, hPPARγ luciferase cell-lines
# PPARα [6] = conditions: read-out: EC50 in biochemical PPARα assays; cited from earlier work
# [7] = test system: retinas of mice and diabetic rats; conditions: cited from earlier work
# type 2 diabetic patients = conditions: FIELD and ACCORD; cited from earlier work
structure (smiles),measurement,setting,value
COc1ccc(COc2ccc(CNc3cccc(C(=O)O)c3)cc2)cc1 [Compound 10],PPARα expression (Western blot),PPARα [1],induced the expression of PPARα in a dose-dependent manner
same,expression of PPARα target genes (RT-PCR),[2],induces the expression of various PPARα target genes
same,wound closure (cell migration),[3],inhibits wound closure in a dose-dependent fashion
same,EC50,hPPARα [4],~6 µM
COc1ccc(COc2ccc(CNc3cccc(C(=O)O)c3)c(OCc3ccc(OC)cc3)c2)cc1 [Compound 26],PPAR isoform selectivity profile,hPPARα [5]; hPPARα,maintains the selectivity
COc1ccc(COc2ccc(CNc3cccc(OC(C)(C)C(=O)O)c3)c(OCc3ccc(OC)cc3)c2)cc1 [Compound 28],PPAR isoform selectivity profile,hPPARα [5]; hPPARα,pan-agonist profile was maintained
same,improvement in potency versus 22,"hPPARα [5]; hPPARα, compare 22 and 28",10 fold
"Cc1c(Cl)ccc2c(C(=O)O)cc(-c3ccccc3)nc12 [Compound Y-0452, 7-chloro-8-methyl-2-phenylquinoline-4-carboxylic acid]",EC50,PPARα [6],25 to 50 µM
same,toxicity in the retinas,[7]; mice and diabetic rats,without signs of toxicity
same,effects in vivo against DR,[7]; retinas of mice and diabetic rats,protective effects in vivo against DR
"Cc1nc(-c2ccc(C(F)(F)F)cc2)sc1C(=O)NCc1ccc(OC(C)(C)C(=O)O)cc1 [GW590735, reference compound]",cytotoxicity in reporter assay,hPPARα [5]; concentrations higher than 10 μM,observed cytotoxicity at higher concentrations
CC(C)OC(=O)C(C)(C)Oc1ccc(C(=O)c2ccc(Cl)cc2)cc1 [fenofibrate],effects against diabetic macular edema (DME) and retinal NV,type 2 diabetic patients,robust protective effects
